Test results as given in ChEMBL document CHEMBL1201862, “PubChem BioAssay data set” (2004).
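Cells were grown in 96-well plates and exposed to each compound for 48 hours at five concentrations; endpoints were interpolated linearly between bracketing concentrations, or set to the highest concentration if not reached. The concentration for 50% growth inhibition is given as GI50.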 Active and inactive are the calls of the source. Cut-off read from the data, not from the text of the source: active = GI50 up to about 1.1 µM and inactive = higher.

Columns and labels:
Test in all cases: DTP human tumour cell line panel, 48 h
[1] = test system: HOP-62
[2] = test system: Hs-578T
[3] = test system: A498
[4] = test system: NCI-H23
[5] = test system: ACHN
[6] = test system: HOP-92
[7] = test system: HCC 2998
[8] = test system: SF-539
[9] = test system: MOLT-4
[10] = test system: SK-MEL-5
[11] = test system: OVCAR-4
[12] = test system: HCT-116
[13] = test system: 786-0
[14] = test system: SF-295
[15] = test system: OVCAR-3
[16] = test system: OVCAR-8
[17] = test system: COLO 205
[18] = test system: SN12C
[19] = test system: SNB-19
[20] = test system: BT-549

Row | SMILES | GI50 [1] | GI50 [2] | GI50 [3] | GI50 [4] | GI50 [5] | GI50 [6] | GI50 [7] | GI50 [8] | GI50 [9] | GI50 [10] | GI50 [11] | GI50 [12] | GI50 [13] | GI50 [14] | GI50 [15] | GI50 [16] | GI50 [17] | GI50 [18] | GI50 [19] | GI50 [20]
1 | O=C(c1cc2c(c3ccccc13)NCCN=C2C(F)(F)F)C(F)(F)F | 19.7 µM (inactive) | 14.3 µM (inactive) | 17.1 µM (inactive) | 40.6 µM (inactive) | 22.8 µM (inactive) | 21.9 µM (inactive) | 17.5 µM (inactive) | 20.1 µM (inactive) | 7.11 µM (inactive) | 16.4 µM (inactive) | 38.7 µM (inactive) | 26.7 µM (inactive) | 20.8 µM (inactive) | 16 µM (inactive) | 26 µM (inactive) | 34.5 µM (inactive) |  |  |  | 
2 | O=C(O)c1cccc(NC(C(=O)c2ccccc2)c2ccccc2)c1 (stereo not drawn) | > 100 µM (inactive) | 0.714 µM (active) | > 100 µM (inactive) | > 100 µM (inactive) | > 100 µM (inactive) | 34 µM (inactive) | > 100 µM (inactive) | > 100 µM (inactive) | > 100 µM (inactive) | > 100 µM (inactive) |  | > 100 µM (inactive) | > 100 µM (inactive) | > 100 µM (inactive) | > 100 µM (inactive) | > 100 µM (inactive) | > 100 µM (inactive) | > 100 µM (inactive) | > 100 µM (inactive) | 
3 | COc1ccccc1NC(=S)Nc1cc(C)cc(C)n1 | > 63 µM (inactive) |  | > 100 µM (inactive) | > 100 µM (inactive) | > 100 µM (inactive) |  | > 100 µM (inactive) | > 100 µM (inactive) | > 100 µM (inactive) | > 100 µM (inactive) | > 100 µM (inactive) | > 100 µM (inactive) | > 100 µM (inactive) | > 100 µM (inactive) | > 70.8 µM (inactive) | > 100 µM (inactive) | > 100 µM (inactive) | > 100 µM (inactive) | > 100 µM (inactive) | > 100 µM (inactive)
4 | Cc1cccc(NC(=O)c2cc3cc(/N=N/c4ccccc4Cl)ccc3oc2=O)c1 | 46.2 µM (inactive) |  | > 100 µM (inactive) | 19.7 µM (inactive) | 40 µM (inactive) | 33.3 µM (inactive) | 26.1 µM (inactive) | 30.3 µM (inactive) | 22.8 µM (inactive) | 19.8 µM (inactive) | 29.4 µM (inactive) | 23.7 µM (inactive) | 26.9 µM (inactive) | 40 µM (inactive) | 26.8 µM (inactive) | 27 µM (inactive) | 57.7 µM (inactive) | 30.2 µM (inactive) | 49 µM (inactive) | 
5 | CC1=NN(C(=O)Cc2ccccc2)C(=O)/C1=C\c1ccccc1O | > 100 µM (inactive) |  | > 100 µM (inactive) | > 100 µM (inactive) | > 100 µM (inactive) | > 100 µM (inactive) | > 100 µM (inactive) | > 100 µM (inactive) | > 100 µM (inactive) | > 100 µM (inactive) | > 100 µM (inactive) | > 100 µM (inactive) | > 100 µM (inactive) | > 100 µM (inactive) | > 100 µM (inactive) | > 100 µM (inactive) | > 100 µM (inactive) | > 100 µM (inactive) | > 100 µM (inactive) | 
6 | Cc1cccc(C)c1NC(=O)C(=O)C(C#N)c1ccccc1 (stereo not drawn) | > 100 µM (inactive) |  | > 100 µM (inactive) | > 100 µM (inactive) | > 100 µM (inactive) | > 100 µM (inactive) | > 100 µM (inactive) | > 100 µM (inactive) | > 100 µM (inactive) | > 100 µM (inactive) | > 100 µM (inactive) | > 100 µM (inactive) | > 100 µM (inactive) | > 100 µM (inactive) | > 100 µM (inactive) | > 100 µM (inactive) | > 100 µM (inactive) | > 100 µM (inactive) | > 100 µM (inactive) | 
7 | N#CCCN(C(=O)Nc1ccccc1)[C@H]1CCCC[C@@H]1N(C(=O)Nc1ccccc1)c1ccccc1 | > 100 µM (inactive) |  |  | > 100 µM (inactive) | > 100 µM (inactive) | > 100 µM (inactive) | 73.3 µM (inactive) | > 100 µM (inactive) | 25.1 µM (inactive) | > 100 µM (inactive) | 64.6 µM (inactive) | 66.7 µM (inactive) | > 100 µM (inactive) | 55.7 µM (inactive) | > 100 µM (inactive) | > 100 µM (inactive) | 83 µM (inactive) | > 100 µM (inactive) | 22.2 µM (inactive) | > 100 µM (inactive)
8 | CC(C)(C)c1cc(-c2cc(C(C)(C)C)n(-c3ccccc3)n2)nn1-c1ccccc1 | > 100 µM (inactive) |  | > 100 µM (inactive) | > 100 µM (inactive) | 23.2 µM (inactive) | > 100 µM (inactive) | 31.3 µM (inactive) | > 100 µM (inactive) | > 100 µM (inactive) | > 100 µM (inactive) | > 100 µM (inactive) | > 100 µM (inactive) | > 100 µM (inactive) | > 100 µM (inactive) | > 100 µM (inactive) | > 100 µM (inactive) | 48.6 µM (inactive) | > 100 µM (inactive) |  | > 100 µM (inactive)
9 | Nc1ccc(Sc2nnc(N)s2)cc1 | > 100 µM (inactive) | > 100 µM (inactive) |  |  | > 100 µM (inactive) |  | > 100 µM (inactive) | > 100 µM (inactive) | > 100 µM (inactive) | > 100 µM (inactive) | > 100 µM (inactive) | > 100 µM (inactive) | > 100 µM (inactive) | > 100 µM (inactive) |  | > 100 µM (inactive) | > 100 µM (inactive) | > 100 µM (inactive) | > 100 µM (inactive) | 
10 | Nn1c(S)nnc1-c1ccccc1Nc1ccccc1-c1nnc(S)n1N | > 50 µM (inactive) |  |  | > 50 µM (inactive) | > 50 µM (inactive) | > 50 µM (inactive) | > 50 µM (inactive) | > 50 µM (inactive) | > 50 µM (inactive) | > 50 µM (inactive) | > 50 µM (inactive) | > 50 µM (inactive) | > 50 µM (inactive) | > 50 µM (inactive) | > 50 µM (inactive) | > 50 µM (inactive) | > 50 µM (inactive) |  | > 50 µM (inactive) | > 50 µM (inactive)
11 | O=C1c2c(O)cc(O)cc2C(C2OC(CO)C(O)C(O)C2O)c2cc(CO)cc(O)c21 (stereo not drawn) | > 100 µM (inactive) |  | > 100 µM (inactive) | > 100 µM (inactive) | > 100 µM (inactive) | > 100 µM (inactive) | > 100 µM (inactive) |  | > 100 µM (inactive) | > 100 µM (inactive) | > 100 µM (inactive) | > 100 µM (inactive) | > 100 µM (inactive) | > 100 µM (inactive) | > 100 µM (inactive) | > 100 µM (inactive) | > 100 µM (inactive) | > 100 µM (inactive) | > 100 µM (inactive) | > 100 µM (inactive)
12 | N#C/C(=C\c1ccccc1Br)C(=O)c1ccccc1 | 39.7 µM (inactive) |  | > 100 µM (inactive) | > 40.4 µM (inactive) | > 53.8 µM (inactive) | > 100 µM (inactive) | > 95.7 µM (inactive) | > 91.2 µM (inactive) | 12.2 µM (inactive) | 16.5 µM (inactive) | 7.14 µM (inactive) | 2.81 µM (inactive) | 15.8 µM (inactive) | 31 µM (inactive) | > 41.1 µM (inactive) | 11.1 µM (inactive) | > 65.9 µM (inactive) | > 43.3 µM (inactive) | 20.4 µM (inactive) | 
13 | CCc1n[nH]c(=O)n1-c1ccc2ccccc2c1 | > 100 µM (inactive) | > 100 µM (inactive) | > 100 µM (inactive) | > 100 µM (inactive) | > 100 µM (inactive) | > 100 µM (inactive) | > 100 µM (inactive) | > 100 µM (inactive) | > 100 µM (inactive) | > 100 µM (inactive) | > 100 µM (inactive) | > 100 µM (inactive) | > 100 µM (inactive) | > 100 µM (inactive) | > 100 µM (inactive) | > 100 µM (inactive) | > 100 µM (inactive) | > 100 µM (inactive) | > 100 µM (inactive) | 
14 | CCC(=O)C(C)C(=O)C(=O)C(=O)OC (stereo not drawn) | > 100 µM (inactive) |  | > 100 µM (inactive) | > 100 µM (inactive) | > 100 µM (inactive) | > 100 µM (inactive) | > 100 µM (inactive) | > 100 µM (inactive) | > 51.4 µM (inactive) | > 100 µM (inactive) | > 100 µM (inactive) | > 62.8 µM (inactive) | > 100 µM (inactive) | > 100 µM (inactive) | > 100 µM (inactive) | > 100 µM (inactive) | > 60.5 µM (inactive) | > 100 µM (inactive) | > 100 µM (inactive) | 
15 | COc1nc2c(nc(N)n2C2OCC(O)C(O)C2O)c(=O)n1C (stereo not drawn) | > 100 µM (inactive) |  | > 100 µM (inactive) | > 100 µM (inactive) | > 100 µM (inactive) | > 100 µM (inactive) | > 100 µM (inactive) | > 100 µM (inactive) | > 100 µM (inactive) | > 100 µM (inactive) | > 100 µM (inactive) | > 100 µM (inactive) | > 100 µM (inactive) | > 100 µM (inactive) | > 100 µM (inactive) | > 100 µM (inactive) | > 100 µM (inactive) | > 100 µM (inactive) | > 100 µM (inactive) | 
16 | CCCOc1ccc(/C(Cl)=C(\C=O)c2ccc(OC)c(OC)c2)cc1OCCC | 19.8 µM (inactive) |  | 12.3 µM (inactive) | 3.46 µM (inactive) | 9.31 µM (inactive) | 18 µM (inactive) | 3.53 µM (inactive) | 14.1 µM (inactive) | 2.31 µM (inactive) | 10 µM (inactive) | 7.03 µM (inactive) | 2.64 µM (inactive) | 20.8 µM (inactive) | 13.7 µM (inactive) | 23.9 µM (inactive) | 11.9 µM (inactive) | 4.22 µM (inactive) | 9.89 µM (inactive) | 23.1 µM (inactive) | 
